# Measured values taken from patent publication US11679108B2, “Aromatic heterocyclic compound, and pharmaceutical composition and use thereof” (GUANGZHOU HENOVCOM BIOSCIENCE CO., LTD., priority 2018, dated 2023).
# Assays:
# ATX = ATX (Homo sapiens, UniProt Q13822); experiment: Analysis in vitro: LPC was used as substrate for screening enzyme activity (Amplex Red fluorescence); type: biochemical; details: inhibitory activity against ATX, with LPC as substrate
# Procedure, shortened: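 ATX lysoPLD activity was measured by coupled detection: LPC hydrolysis releases choline, which choline oxidase/HRP convert to an Amplex Red fluorescent signal (ex 530/em 590 nm). The enzyme mix (2 ng/μl ATX, 2 U/ml HRP, 0.2 U/ml choline oxidase) was combined with the substrate mix ([…], 400 μM Amplex Red) and 10-point threefold compound dilutions for 30 min. IC50 was derived from the inhibition ratio.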
# ATX in human plasma = target: T1, ATX in human plasma (Homo sapiens, UniProt Q13822); experiment: Analysis in vitro: detection of LPA in human plasma for screening activity (LPA 18:2 by LC/MS/MS); type: biochemical; details: incubated 2 hours at 37° C., LPA 18:2 detected by LC/MS/MS
# T1 construct: blank plasma was derived from at least 6 individual people; from tissue; host or cells: human plasma (pooled from at least 6 individuals)
# Procedure, shortened: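 Compounds at 0 to 10 μM were incubated for 2 h at 37° C. under 5% CO2 in pooled human plasma (≥6 donors), with endogenous LPC acting as substrate. LPA 18:2 was quantified by LC/MS/MS with an LPA 17:0 internal standard after methanol precipitation. IC50 values came from residual activity relative to compound-free plasma across 8 points of a 3-fold dilution series.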
IC50 (ATX),IC50 (ATX in human plasma),SMILES
0.01 to 100 nM,0.01 to 100 nM,"CCc1nc2sc(N3CC[C@H](N(C)CC(=O)N4CC(O)C4)C3)nn2c1N(C)c1nc(-c2ccc(F)cc2)c(C#N)s1 [Example 22, (S)-2-{[6-ethyl-2-(3-((2-(3-hydroxyazetidin-1-yl)-2oxoethyl)(methyl)amino)pyrrolidin-1-yl)imidazo[2,1-b][1,3,4]thiadiazol-5-yl](methyl)amino}-4-(4-fluorophenyl)thiazole-5-carbonitrile]"
0.01 to 100 nM,0.01 to 100 nM,"CCc1nc2sc(N3CCC[C@H](N(C)CC(=O)N4CC(O)C4)C3)nn2c1N(C)c1nc(-c2ccc(F)cc2)c(C#N)s1 [Example 24, (S)-2-{[6-ethyl-2-(3-((2-(3-hydroxyazetidin-1-yl)-2-oxoethyl)(methyl)amino)piperidin-1-yl)imidazo[2,1-b][1,3,4]thiadiazol-5-yl](methyl)amino}-4-(4-fluorophenyl)thiazole-5-carbonitrile]"
0.01 to 100 nM,100 to 500 nM,"CCc1nc2sc(N3CC[C@H](N(C)CC(=O)N4CC(F)C4)C3)nn2c1N(C)c1nc(-c2ccc(F)cc2)c(C#N)s1 [Example 38, (S)-2-{[6-ethyl-2-(3-((2-(3-fluoroazetidin-1-yl)-2-oxoethyl)(methyl)amino)pyrrolidin-1-yl)imidazo[2,1-b][1,3,4]thiadiazol-5-yl](methyl)amino}-4-(4-fluorophenyl)thiazole-5-carbonitrile]"
0.01 to 100 nM,100 to 500 nM,"CCc1nc2sc(N3CC[C@H](N(C)CC(=O)N4CCOCC4)C3)nn2c1N(C)c1nc(-c2ccc(F)cc2)c(C#N)s1 [Example 41, (S)-2-{[6-ethyl-2-(3-(methyl(2-morpholino-2-oxoethyl)amino)pyrrolidin-1-yl)imidazo[2,1-b][1,3,4]thiadiazol-5-yl](methyl)amino}-4-(4-fluorophenyl)thiazole-5-carbonitrile]"
0.01 to 100 nM,0.01 to 100 nM,"CCc1nc2sc(N3CC[C@H](N(C)CC(=O)N4CC(C#N)C4)C3)nn2c1N(C)c1nc(-c2ccc(F)cc2)c(C#N)s1 [Example 47, (S)-2-{[2-(3-((2-(3-cyanoazetidin-1-yl)-2-oxoethyl)(methyl)amino)pyrrolidin-1-yl)-6-ethylimidazo[2,1-b][1,3,4]thiadiazol-5-yl](methyl)amino}-4-(4-fluorophenyl)-thiazole-5-carbonitrile]"

# The remaining lines, values behind:
SMILES,IC50 (ATX),IC50 (ATX in human plasma)
"CCc1nc2sc(N3CCC[C@@H](N(C)CC(=O)N4CC(O)C4)C3)nn2c1N(C)c1nc(-c2ccc(F)cc2)c(C#N)s1 [Example 23, (R)-2-{[6-ethyl-2-(3-((2-(3-hydroxyazetidin-1-yl)-2-oxoethyl)(methyl)amino)piperidin-1-yl)imidazo[2,1-b][1,3,4]thiadiazol-5-yl](methyl)amino}-4-(4-fluorophenyl)thiazole-5-carbonitrile]",100 to 500 nM,100 to 500 nM
"CCc1nc2sc(N3CC[C@@H](N(C)C(=O)N4CC(O)C4)C3)nn2c1N(C)c1nc(-c2ccc(F)cc2)c(C#N)s1 [Example 36, (R)—N-{1-[5-((5-cyano-4-(4-fluorophenyl)thiazol-2-yl)(methyl)amino)-6-ethylimidazo[2,1-b][1,3,4]thiadiazol-2-yl]pyrrolidin-3-yl}-3-hydroxy-N-methylazetidine-1-carboxamide]",0.01 to 100 nM,100 to 500 nM
"CCc1nc2sc(N3CC[C@H](N(C)C(=O)N4CC(O)C4)C3)nn2c1N(C)c1nc(-c2ccc(F)cc2)c(C#N)s1 [Example 37, (S)—N-{1-[5-((5-cyano-4-(4-fluorophenyl)thiazol-2-yl)(methyl)amino)-6-ethylimidazo[2,1-b][1,3,4]thiadiazol-2-yl]pyrrolidin-3-yl}-3-hydroxy-N-methylazetidine-1-carboxamide]",0.01 to 100 nM,100 to 500 nM
"CCc1nc2sc(N3CC[C@H](N(C)CC(=O)N4CC(C(=O)O)C4)C3)nn2c1N(C)c1nc(-c2ccc(F)cc2)c(C#N)s1 [Example 45, (5)-1-{2-[(1-(5-((5-cyano-4-(4-fluorophenyl)thiazol-2-yl)(methyl)amino)-6-ethylimidazo[2,1-b][1,3,4]thiadiazol-2-yl}pyrrolidin-3-yl)(methyl)amino]acetyl}azetidine-3-carboxylic acid]",0.01 to 100 nM,100 to 500 nM
